From patent publication US5744452A, “γ-L-glutamyl containing immunomodulator compounds and methods therewith” (Wei; Edward T., priority 1995, dated 1998)
Where a SMILES comes first, the peptide text is derived from it. Where no end group is shown, it is not given here.

Experiments:
[1] = system: murine spleen cells; assay: IL-2 production by Concanavalin A activated murine spleen cells (CTLL-2 cell assay); assay type: cell-based, CBA mice; conditions: for interleukin-2 production by murine spleen cells: Table 6; for IL-2 production by murine spleen cells: Table 2
Method: Spleen cells from CBA mice were cultured in tissue culture plates at a 10^6 cells/ml in RPMI-1640 medium supplemented with 10% fetal calf serum, 2 mM L-glutamine, and 80 μg/ml of Gentamycin. 1 μg/ml of Concanavalin A was used to activate basal IL-2 production from murine spleen lymphocytes. Bestim was added to cell cultures at the "0" time. After 36 hours supernatants were collected, centrifuged at 800 xg and IL-2 levels were measured in a CTLL-2 cell assay (Gillis et al., "T-cell Growth Factor: Parameters of Production and Quantitative Assay for Activity," J. Immunol., 120: 2027-2032, 1978). […] However, due to the variations in the method for IL-2 measurements clear dose-response comparisons could not be achieved.
IL-2 production studies have been performed using murine spleen lymphocytes activated with Concanavalin A. Spleen cells from CBA mice were cultured in a tissue culture plates at a 1×10^6 /ml concentration in RPMI-1640 medium supplemented with 10% fetal calf serum, 2 mM L-glutamine,80 μg/ml Gentamycin and 1 μg/ml Concanavalin A as an inducer of basal level IL-2 synthesis. Bestim at various concentration was added to cell cultures at the "0" time. After 36 hours supernatants were collected, centrifuged at 800 xg and used for IL-2 levels determination in a CTLL-2 cell assay (Gillis et al., 1978). IL-2-dependent CTLL-2 cells were grown in RPMI-1640 medium in the presence of 1-2 U/ml recombinant IL-2 as a growth factor. Before assay, cells were washed twice to remove IL-2 from the medium. After this wash tested supernatants were added and cells were incubated for 36 hours. IL-2-induced proliferation was assayed using a ^3 H-thymidine incorporation method.

[2] = system: murine bone marrow cells; assay: .THETA.-antigen expression on murine bone marrow cells (T-lymphocyte precursor differentiation); assay type: cell-based, CBA strain mice; parameters: .THETA.-antigen expression on murine bone marrow cells: unit not given here; conditions: for immunostimulatory activity in the in vitro assays used: .THETA.-antigen expression and IL-2 production assays, compared with Bestim; for Percent of murine bone marrow cells expressing .THETA.-antigen: Table 5; for .THETA.-antigen expression on murine bone marrow cells: Table 1
Method: Differentiation of murine T-lymphocyte precursors was studied by the enumeration of cells expressing early surface differentiation marker .THETA.-antigen. Bone marrow cells were obtained from CBA strain mice killed by cervical dislocation. Cells were washed from femur bones with Hank's balanced salt solution and washed 3 times with RPM 1-1640 medium by centrifugation at 400 xg. Peptides at desired concentrations were incubated with 1×10^6 /ml of obtained cells for 1 hour at 37° C. Theta-antigen (".THETA.-antigen") expression has been determined with antibrain antibodies in a cytotoxicity assay using complement-dependent cell lysis (Terasaki et al., "Microdroplet Lymphocyte Cytotoxicity Test. Manual of Tissue Typing Techniques," National Institutes of Health, Bethesda, Md., pp 50-55, 1972). Dead cells were counted microscopically after eosin staining. […] Its activity was much stronger than that of the reference thymogen peptide.
Differentiation of murine T-lymphocyte precursors was studied by the enumeration of cells expressing early surface differentiation marker--.THETA.-antigen which is an analog of the Thy-1 lymphocyte differentiation antigen. Bone marrow cells were obtained from CBA strain mice killed by cervical dislocation. Cells were washed from femur bones with Hank's balanced salt solution and washed 3 times with RPMI-1640 medium by centrifugation at 400 xg. Peptides at desired concentrations were incubated with 1×10^6 /ml of obtained cells for 1 hour at 37° C. .THETA.-antigen expression were determined with antibrain antibodies in a cytotoxicity assay using complement-dependent cell lysis (Terasaki et al., 1972). Dead cells were counted microscopically after eosin staining untreated bone marrow cells served as a negative control, and murine thymocytes as a positive control.

[3] = cited from earlier work

| Compound | interleukin-2 production by murine spleen cells ([1]; peptide 0.001 μg/ml) | interleukin-2 production by murine spleen cells ([1]; peptide 0.01 μg/ml) | interleukin-2 production by murine spleen cells ([1]; peptide 0.1 μg/ml) | interleukin-2 production by murine spleen cells ([1]; peptide 1.0 μg/ml) | interleukin-2 production by murine spleen cells ([1]; peptide 10 μg/ml) | interleukin-2 production by murine spleen cells ([1]; peptide 100 μg/ml) | immunostimulatory activity in the in vitro assays used [2] | Percent of murine bone marrow cells expressing .THETA.-antigen ([2]; peptide 0.0001 μg/ml) [%] | Percent of murine bone marrow cells expressing .THETA.-antigen ([2]; peptide 0.001 μg/ml) [%] | Percent of murine bone marrow cells expressing .THETA.-antigen ([2]; peptide 0.01 μg/ml) [%] | Percent of murine bone marrow cells expressing .THETA.-antigen ([2]; peptide 0.1 μg/ml) [%] | Percent of murine bone marrow cells expressing .THETA.-antigen ([2]; peptide 1.0 μg/ml) [%] | Percent of murine bone marrow cells expressing .THETA.-antigen ([2]; peptide 10 μg/ml) [%] | Percent of murine bone marrow cells expressing .THETA.-antigen ([2]; peptide 100 μg/ml) [%] | other results |
| --- | --- | --- | --- | --- | --- | --- | --- | --- | --- | --- | --- | --- | --- | --- | --- |
| CN[C@@H](CCC(=O)N[C@@H](Cc1c[nH]c2ccccc12)C(=O)O)C(=O)O [B, N-methyl-γ-L-glutamyl-L-tryptophan] | 134 ± 6 | 147 ± 8 | 152 ± 7 | 165 ± 6 | 171 ± 6 | 180 ± 11 | active compounds were obtained | 20 | 29 | 34 | 40 | 47 | 51 | 53 |  |
| CC(=O)N[C@@H](CCC(=O)N[C@@H](Cc1c[nH]c2ccccc12)C(=O)O)C(=O)O [C, N-acetyl-γ-L-glutamyl-L-tryptophan] | 128 ± 7 | 136 ± 7 | 149 ± 5 | 157 ± 9 | 170 ± 4 | 174 ± 8 | active compounds were obtained | 19 | 28 | 35 | 40 | 45 | 46 | 50 |  |
| N[C@@H](CCC(=O)N[C@@H](Cc1cn(C=O)c2ccccc12)C(=O)O)C(=O)O [D, γ-L-glutamyl-Nin -formyl-L-tryptophan] | 114 ± 16 | 125 ± 3 | 153 ± 20 | 132 ± 8 | 144 ± 7 | 154 ± 5 | active compounds were obtained | 24 | 25 | 30 | 36 | 42 | 48 | 53 |  |
| N[C@@H](CCC(=O)O)C(=O)N[C@@H](Cc1c[nH]c2ccccc12)C(=O)O [Thymogen, L-glutamyl-L-tryptophan, reference compound] (H-Glu-Trp-OH) | 115 ± 8 | 132 ± 16 | 118 ± 11 | 128 ± 5 | 129 ± 10 | 136 ± 4 |  |  |  | 18 | 20 | 25 | 29 | 32 | IL-2 production by murine spleen cells ([1]; peptide 0.001 μg/ml, 36 hours): 114 ± 12; IL-2 production by murine spleen cells ([1]; peptide 0.01 μg/ml): 106 ± 10; IL-2 production by murine spleen cells ([1]; peptide 0.1 μg/ml): 106 ± 5; IL-2 production by murine spleen cells ([1]; peptide 1.0 μg/ml): 189 ± 13; IL-2 production by murine spleen cells ([1]; peptide 10 μg/ml): 80 ± 9; IL-2 production by murine spleen cells ([1]; peptide 100 μg/ml): 89 ± 3; .THETA.-antigen expression on murine bone marrow cells ([2]; peptide 0.0001 μg/ml, 1 hour 37° C.): 10 ± 0.5; .THETA.-antigen expression on murine bone marrow cells ([2]; peptide 0.001 μg/ml): 10 ± 1.2; .THETA.-antigen expression on murine bone marrow cells ([2]; peptide 0.01 μg/ml): 10 ± 0.5; .THETA.-antigen expression on murine bone marrow cells ([2]; peptide 0.1 μg/ml): 9 ± 1.0; .THETA.-antigen expression on murine bone marrow cells ([2]; peptide 1.0 μg/ml): 21 ± 0.8; .THETA.-antigen expression on murine bone marrow cells ([2]; peptide 10 μg/ml): 36 ± 2.8; .THETA.-antigen expression on murine bone marrow cells ([2]; peptide 100 μg/ml): 37 ± 2.2 |
| N[C@@H](CCC(=O)N[C@@H](Cc1c[nH]cn1)C(=O)O)C(=O)O [γ-L-glutamyl-L-histidine] |  |  |  |  |  |  | little, if any, of the activities of Bestim |  |  |  |  |  |  |  |  |
| CC[C@H](C)[C@H](NC(=O)CC[C@H](N)C(=O)O)C(=O)O [γ-L-glutamyl-L-isoleucine] |  |  |  |  |  |  | little, if any, of the activities of Bestim |  |  |  |  |  |  |  |  |
| CC(C)C[C@H](NC(=O)CC[C@H](N)C(=O)O)C(=O)O [γ-L-glutamyl-L-leucine] |  |  |  |  |  |  | little, if any, of the activities of Bestim |  |  |  |  |  |  |  |  |
| N[C@@H](CCC(=O)N[C@@H](Cc1ccccc1)C(=O)O)C(=O)O [γ-L-glutamyl-L-phenylalanine] |  |  |  |  |  |  | little, if any, of the activities of Bestim |  |  |  |  |  |  |  |  |
| N[C@@H](CCC(=O)N1CCC[C@H]1C(=O)O)C(=O)O [γ-L-glutamyl-L-proline] |  |  |  |  |  |  | little, if any, of the activities of Bestim |  |  |  |  |  |  |  |  |
| N[C@@H](CCC(=O)N[C@@H](Cc1ccc(O)cc1)C(=O)O)C(=O)O [γ-L-glutamyl-L-tyrosine] |  |  |  |  |  |  | little, if any, of the activities of Bestim |  |  |  |  |  |  |  |  |
| RKDVY [thymopentin, Arg-Lys-Asp-Val-Tyr] |  |  |  |  |  |  |  |  |  |  |  |  |  |  | half-life of breakdown in plasma [3]: 30 s |
| γ-L-glutamyl-β-thienyl-D-alanyl-amide | 146 ± 28 | 127 ± 26 | 128 ± 10 | 156 ± 11 | 172 ± 12 | 198 ± 7 | active compounds were obtained | 20 | 23 | 20 | 27 | 28 | 36 | 40 |  |
